For this assay, the target named is T1, human M1 receptor (hCHRM1) (Homo sapiens, UniProt P11229).
T1 construct: expressed in transfected cells; host or cells: CHO-K1
T1 sequence (P11229 1-460): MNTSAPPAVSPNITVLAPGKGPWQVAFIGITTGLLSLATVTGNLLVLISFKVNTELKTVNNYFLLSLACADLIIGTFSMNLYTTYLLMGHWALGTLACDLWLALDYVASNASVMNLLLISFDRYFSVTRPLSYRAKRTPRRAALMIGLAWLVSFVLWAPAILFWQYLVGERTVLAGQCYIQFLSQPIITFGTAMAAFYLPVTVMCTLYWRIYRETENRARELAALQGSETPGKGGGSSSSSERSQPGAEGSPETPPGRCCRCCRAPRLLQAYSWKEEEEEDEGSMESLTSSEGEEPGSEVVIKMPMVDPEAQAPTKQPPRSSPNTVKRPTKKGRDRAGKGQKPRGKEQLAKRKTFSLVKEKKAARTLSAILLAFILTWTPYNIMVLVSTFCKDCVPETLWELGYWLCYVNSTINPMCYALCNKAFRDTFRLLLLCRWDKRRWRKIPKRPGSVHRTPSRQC
The assay is described as follows: Measurement of M1 receptor positive allosteric modulator (M1PAM) activity, calcium fluorescence (FLIPRtetra) in CHO-K1 cells in the presence of acetylcholine at EC20. As to conditions: in the presence of acetylcholine at EC20 (final 0.6 nM), CHO-K1 cells expressing hCHRM1; for EC50: inflection point of M1PAM activity, read-out: IP value; for activity (%) at 10 μM: test compound 10 μM. The format is cell-based. The procedure, abridged: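 PAM activity was measured as calcium flux by FLIPRtetra over 1 min after co-addition of compound and EC20 acetylcholine (final 0.6 nM) to Fluo-4-loaded hCHRM1 CHO-K1 cells. The response was scaled between DMSO (0%) and 1 μM acetylcholine (100%), and the inflection point of the concentration curve gives the IP value.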

As for `Cc1nn(C)cc1-c1ccc(CN2Cc3ccnc(Oc4ccc(C(F)F)cc4F)c3C2=O)c(F)c1` [Example 381, 4-(4-(difluoromethyl)-2-fluorophenoxy)-2-(4-(1,3-dimethyl-1H-pyrazol-4-yl)-2-fluorobenzyl)-1,2-dihydro-3H-pyrrolo[3,4-c]pyridin-3-one], the EC50 turned out to be 7.8 nM and the “activity (%) at 10 μM” value is 103%.
For `CC(C)n1cc(-c2ccc(CN3Cc4cccc(Oc5c(F)cc(C#N)cc5F)c4C3=O)cn2)cn1` [Example 382, 3,5-difluoro-4-((2-((6-(1-isopropyl-1H-pyrazol-4-yl)pyridin-3-yl)methyl)-3-oxo-2,3-dihydro-1H-isoindol-4-yl)oxy)benzonitrile], in that order: 70 nM and 99%.
On to `Cc1cc(-c2ccc(CN3Cc4ccnc(Oc5ccc(Cl)cc5F)c4C3=O)cc2)ccn1` [Example 383, 4-(4-chloro-2-fluorophenoxy)-2-(4-(2-methylpyridin-4-yl)benzyl)-1,2-dihydro-3H-pyrrolo[3,4-c]pyridin-3-one], for which the EC50 turned out to be 48 nM and the “activity (%) at 10 μM” value was determined as 86%.
For `CC(C)n1cc(-c2ccc(CN3Cc4ccnc(Oc5c(F)cc(C#N)cc5F)c4C3=O)cc2)cn1` [Example 384, 3,5-difluoro-4-((2-(4-(1-isopropyl-1H-pyrazol-4-yl)benzyl)-3-oxo-2,3-dihydro-1H-pyrrolo[3,4-c]pyridin-4-yl)oxy)benzonitrile], in that order: 7.8 nM and 91%.
`Cc1nn(C)cc1-c1ccc(CN2Cc3ccnc(Oc4c(F)cc(C#N)cc4F)c3C2=O)cc1` [Example 385, 4-((2-(4-(1,3-dimethyl-1H-pyrazol-4-yl)benzyl)-3-oxo-2,3-dihydro-1H-pyrrolo[3,4-c]pyridin-4-yl)oxy)-3,5-difluorobenzonitrile]: the EC50 worked out at 2.6 nM and the “activity (%) at 10 μM” value is listed as 85%.
For `Cn1cc(-c2ccc(CN3Cc4ccnc(Oc5c(F)cc(C#N)cc5F)c4C3=O)c(F)c2)cn1` [Example 386, 3,5-difluoro-4-((2-(2-fluoro-4-(1-methyl-1H-pyrazol-4-yl)benzyl)-3-oxo-2,3-dihydro-1H-pyrrolo[3,4-c]pyridin-4-yl)oxy)benzonitrile], in that order: 1.4 nM and 86%.
The corresponding values for `Cn1ccc(-c2ccc(CN3Cc4ccnc(Oc5c(F)cc(C#N)cc5F)c4C3=O)c(F)c2)n1` [Example 387, 3,5-difluoro-4-((2-(2-fluoro-4-(1-methyl-1H-pyrazol-3-yl)benzyl)-3-oxo-2,3-dihydro-1H-pyrrolo[3,4-c]pyridin-4-yl)oxy)benzonitrile] are 7.1 nM and 102%.
For `Cn1cc(-c2ccc(CN3Cc4ccnc(Oc5ccc(Cl)cc5F)c4C3=O)cc2)cn1` [Example 388, 4-(4-chloro-2-fluorophenoxy)-2-(4-(1-methyl-1H-pyrazol-4-yl)benzyl)-1,2-dihydro-3H-pyrrolo[3,4-c]pyridin-3-one], in that order: 30 nM and 102%.
On to `Cn1cc(-c2ccc(CN3Cc4cccc(Oc5ccc(C(O)C(F)(F)F)cc5F)c4C3=O)nc2)cn1` (centres unmarked) [Example 389, 7-(2-fluoro-4-(2,2,2-trifluoro-1-hydroxyethyl)phenoxy)-2-((5-(1-methyl-1H-pyrazol-4-yl)pyridin-2-yl)methyl)isoindolin-1-one], for which the EC50 was 32 nM and the “activity (%) at 10 μM” value turned out to be 93%.
For `Cn1cc(-c2ccc(CN3Cc4cccc(Oc5ccc(C(O)C(F)(F)F)cc5F)c4C3=O)cn2)cn1` (centres unmarked) [Example 390, 7-(2-fluoro-4-(2,2,2-trifluoro-1-hydroxyethyl)phenoxy)-2-((6-(1-methyl-1H-pyrazol-4-yl)pyridin-3-yl)methyl)isoindolin-1-one], in that order: 71 nM and 90%.

The values are drawn from US9777005B2 (Takeda Pharmaceutical Company Limited, priority 2012, dated 2017).
